Laboratory results taken from patent US10383865B2, “Pharmaceutical combination composition comprising complex formulations of Ivacaftor and Lumacaftor and their salts and derivatives, process for their preparation thereof and pharmaceutical compositions containing them” (Druggability Technologies IP Holdco Limited, priority 2016, dated 2019).
Values joined by “and” are separate entries in the source; they are usually repeats but may differ in a detail not shown here. Equal entries are not always repeated. Where two headings read alike, the source gives them in different places.

Experiments:
[1] = cited from earlier work; for median (range) tmax: multiple oral dose of Ivacaftor in combination with Lumacaftor, fed state; for exposure with fat-containing foods relative to fasting state: single dose of Lumacaftor/Ivacaftor
[2] = cited from earlier work; for share of the total dose eliminated as this metabolite: oral administration of Ivacaftor
[3] = cited from earlier work
[4] = tested on: CYP3A; settings: in-vitro and clinical studies; cited from earlier work
[5] = cited from earlier work; remark: listed apart in the source
[6] = tested on: colorectal adenocarcinoma (Caco-2) cell system; settings: cited from earlier work
[7] = tested on: plasma proteins, primarily albumin; settings: cited from earlier work
[8] = biological target: CFTR protein (Homo sapiens, UniProt P13569); settings: major human metabolites of Ivacaftor; cited from earlier work
Chain of CFTR protein (P13569 whole entry): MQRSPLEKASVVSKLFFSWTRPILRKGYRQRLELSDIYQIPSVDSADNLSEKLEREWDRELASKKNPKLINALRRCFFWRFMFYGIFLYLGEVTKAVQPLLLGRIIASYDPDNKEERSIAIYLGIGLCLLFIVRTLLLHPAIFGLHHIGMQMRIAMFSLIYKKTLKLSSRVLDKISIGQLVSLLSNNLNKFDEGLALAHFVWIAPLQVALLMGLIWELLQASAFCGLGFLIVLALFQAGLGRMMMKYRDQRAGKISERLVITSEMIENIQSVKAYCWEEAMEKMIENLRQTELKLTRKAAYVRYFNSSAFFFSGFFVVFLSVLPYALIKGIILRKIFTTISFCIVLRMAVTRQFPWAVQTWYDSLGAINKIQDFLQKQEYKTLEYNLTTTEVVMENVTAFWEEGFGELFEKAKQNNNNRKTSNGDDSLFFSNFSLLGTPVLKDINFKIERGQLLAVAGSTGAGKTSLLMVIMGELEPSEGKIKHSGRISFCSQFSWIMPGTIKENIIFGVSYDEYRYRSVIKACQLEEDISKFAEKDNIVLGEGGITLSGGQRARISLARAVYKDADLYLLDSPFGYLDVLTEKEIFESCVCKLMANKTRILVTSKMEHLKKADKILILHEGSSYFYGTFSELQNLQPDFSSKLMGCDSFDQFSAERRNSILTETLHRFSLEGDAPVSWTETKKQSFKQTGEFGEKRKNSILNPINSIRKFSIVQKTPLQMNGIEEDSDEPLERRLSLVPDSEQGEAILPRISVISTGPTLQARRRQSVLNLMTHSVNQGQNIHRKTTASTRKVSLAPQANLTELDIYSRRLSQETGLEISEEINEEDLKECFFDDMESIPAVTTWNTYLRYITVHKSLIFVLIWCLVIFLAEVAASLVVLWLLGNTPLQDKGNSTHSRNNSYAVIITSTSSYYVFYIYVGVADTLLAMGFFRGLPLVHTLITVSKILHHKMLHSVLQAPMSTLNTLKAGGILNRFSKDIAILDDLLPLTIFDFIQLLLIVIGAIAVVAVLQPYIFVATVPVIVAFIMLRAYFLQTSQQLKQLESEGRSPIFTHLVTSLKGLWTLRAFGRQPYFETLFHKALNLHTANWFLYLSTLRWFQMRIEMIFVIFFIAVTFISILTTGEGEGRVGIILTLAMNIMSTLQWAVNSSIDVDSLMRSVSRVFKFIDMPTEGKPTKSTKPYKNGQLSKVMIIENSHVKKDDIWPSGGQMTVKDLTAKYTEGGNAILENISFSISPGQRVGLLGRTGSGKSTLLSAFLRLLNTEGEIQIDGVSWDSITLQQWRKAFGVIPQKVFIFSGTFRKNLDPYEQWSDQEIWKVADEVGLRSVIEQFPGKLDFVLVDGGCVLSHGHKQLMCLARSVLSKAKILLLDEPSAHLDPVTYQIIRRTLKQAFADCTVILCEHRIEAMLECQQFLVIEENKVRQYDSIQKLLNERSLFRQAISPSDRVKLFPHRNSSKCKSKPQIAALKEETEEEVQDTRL

[9] = Gastro-intestinal tract simulated dissolution test (fasted/FaSSIF and fed/FeSSIF); type: physicochemical; settings: for increase of Ivacaftor dissolution / apparent solubility in FeSSIF condition: FeSSIF vs FaSSIF
Experimental: Gastro-intestinal tract simulated drug dissolution tests were performed by dispersing the blended pharmaceutical combination composition described above in purified water. The dispersion contained 1 mg/mL Lumacaftor and 0.625 mg/mL Ivacaftor (identical mixture to ORKAMBI®). After 30 minutes holding time, simulated gastric fluid (SGF V2) was added to dispersion in order to set-up the pH to 1.6 (fasted state simulation) or FeSSIF buffer to increase the pH to 5.8 (fed state simulation). After 60 minutes holding time, the pH of the fasted state simulated dispersion was set-up to pH=6.5 adding maleic acid solution. FaSSIF solution was also added to the dispersion to ensure the fasted condition in the intestine simulation. In case of fed state simulation FeSSIF solution was added to the dispersion.
The dissolved amount of Lumacaftor and Ivacaftor from the blended pharmaceutical combination composition was measured by RP-HPLC after filtration with 0.1 μm pore size filter at different time points. Dissolution of Ivacaftor and Lumacaftor from the blended and granulated complex formulation was instantaneous, within 5 minutes more than 85% of the Ivacaftor and Lumacaftor dissolved from the pharmaceutical composition of present invention both in fasted and fed state simulated condition. (FIG. 3).

[10] = Redispersibility / DLS particle size of ball milled formulations; type: physicochemical; settings: after ball milling and lyophilization
Experimental: Ivacaftor was ball milled in the presence of the excipients used for the preparation of solid dispersion. Crystalline Lumacaftor was ball milled in the absence of complexation agent (Luviscol VA64) and pharmaceutically acceptable excipient (SDS) and in the presence of them. Ball milling parameters were the following: • Speed: 500 rpm • Milling time: 1 hour • Number of the balls: 25 pcs with 10 mm diameter • Milling vessel's material: […] • Quantity of the milled samples: 100 mg API equivalent mass in 12 mL Milli-Q water
After the milling, the vessel was washed out with 5 mL Milli-Q water. The products were frozen on salted ice and then it was lyophilized using a freeze-drier equipped with −110° C. ice condenser, with a vacuum pump. The material and in-vitro properties of the resulted formulations were compared to the complex Lumacaftor and Ivacaftor formulations.
Particle size of the formulations was measured by DLS technique in reconstituted dispersion/solution.

[11] = Comparative apparent solubility test (100 nm filtration, UV-VIS or RP-HPLC); type: physicochemical; settings: ultrapurified water, thermodynamic from solid, FIG. 17, read-out: comparative apparent solubility of Ivacaftor formulations
Experimental: The apparent solubility was measured by UV-VIS spectroscopy or RP-HPLC at room temperature. The samples were dispersed in ultrapurified water in 1-20 mg/mL active ingredient equivalent concentration range. The resulting solutions were filtered by 100 nm disposable syringe filter. The active ingredient content in the filtrate was measured by UV-Vis spectrophotometry or RP-HPLC and the apparent solubility was calculated. The filtrate may contain particles which could not be filtrated out using 100 nm pore size filter.

[12] = single 150 mg oral dose, healthy volunteers, fed state

## CC(C)(C)c1cc(C(C)(C)C)c(NC(=O)c2c[nH]c3ccccc3c2=O)cc1O [Ivacaftor, N-(2,4-di-tert-butyl-5-hydroxyphenyl)-1,4-dihydro-4oxoquinoline-3-carboxamide]
[1]
  median (range) tmax: approximately 4.0 hours
  exposure with fat-containing foods relative to fasting state: approximately 3 times
[2]; 150 mg every 12 hours for 7 days, healthy volunteers, fed state
  apparent volume of distribution, mean (±SD): 353 (122) L
[2]; every 12-hour dosing
  accumulation ratio: 2.2 to 2.9
  time to steady-state plasma concentrations: 3 to 5 days
[2]; fed state
  median (range) tmax: approximately 4.0 (3.0; 6.0) hours
[2]; humans, fed vs fasted
  increase of exposure when given with food containing fat (food effect): 2-to 4 fold and 2-4 fold
[2]; oral administration
  fraction of dose eliminated in the feces after metabolic conversion: 87.8%
  urinary excretion as unchanged parent: negligible
[2]; [12]
  AUC, mean (±SD): 10,600 (5260) ng*hr/mL
  Cmax, mean (±SD): 768 (233) ng/mL
  time of peak plasma concentrations (tmax): approximately 4 hours
[2]; single dose
  apparent terminal half-life: approximately 12 hours
[3]; water
  solubility in water: < 0.05 microgram/mL
[4]
  main metabolic route: primarily metabolized by CYP3A

## Cc1ccc(NC(=O)C2(c3ccc4c(c3)OC(F)(F)O4)CC2)nc1-c1cccc(C(=O)O)c1 [Lumacaftor]
[5]; 200 mg every 24 hours for 28 days, CF patients, fed state
  apparent volume of distribution, mean (±SD): 86.0 (69.8) L
[5]; Lumacaftor and its metabolites
  total radioactivity recovered in the urine: 8.6%
[5]; fed state
  median (range) time of the maximum concentration (tmax): approximately 4.0 (2.0, 9.0) hours
[5]; fed vs fasted
  increase of exposure when given with fat containing food: 1.6-to 2.0 fold
[5]; humans
  excreted unchanged in the feces: 51%
[5]; in-vitro and in vivo data
  main metabolic route: mainly metabolized via oxidation and glucuronidation
[5]; of total radioactivity
  recovered in urine as unchanged parent: 0.18%
[5]; patients with CF
  half-life: approximately 26 hours
[1]
  median (range) tmax: approximately 4.0 hours
  exposure with fat-containing foods relative to fasting state: approximately 2 times
[6]
  permeability in Caco-2 cell system: high permeability
[3]; water and buffer solutions of pH 1.0 to pH 8.0
  solubility: practically insoluble
[7]
  bound to plasma proteins: approximately 99%

## CC(C)(C)c1cc(C(C)(C)CO)c(O)cc1NC(=O)c1c[nH]c2ccccc2c1=O [M1]
[2]
  share of the total dose eliminated as this metabolite: 22%
[8]
  potency relative to Ivacaftor: approximately one-sixth

## CC(C)(C)c1cc(C(C)(C)C(=O)O)c(O)cc1NC(=O)c1c[nH]c2ccccc2c1=O [M6]
[2]
  share of the total dose eliminated as this metabolite: 43%
[8]
  potency relative to Ivacaftor: less than one-fiftieth

## CC(C)(C)c1cc(C(C)(C)C)c(NC(=O)c2c[nH]c3ccccc3c2=O)cc1O [ball milled crystalline Ivacaftor]
[9]
  increase of Ivacaftor dissolution / apparent solubility in FeSSIF condition: 3 fold

## Cc1ccc(NC(=O)C2(c3ccc4c(c3)OC(F)(F)O4)CC2)nc1-c1cccc(C(=O)O)c1 [ball milled crystalline Lumacaftor]
[10]
  redispersibility in purified water: hardly redispersible

## CC(C)(C)c1cc(C(C)(C)C)c(NC(=O)c2c[nH]c3ccccc3c2=O)cc1O [crystalline Ivacaftor]
[11]
  solubility: < 100 µg/mL
[9]
  increase of Ivacaftor dissolution / apparent solubility in FeSSIF condition: 5 fold

## Cc1ccc(NC(=O)C2(c3ccc4c(c3)OC(F)(F)O4)CC2)nc1-c1cccc(C(=O)O)c1 [crystalline Lumacaftor]
[9]; both in FaSSIF and FeSSIF media
  apparent solubility of Lumacaftor: below 10%
